Reference: patent US20230149603A1, “DRUG-RELEASING POLYMER COMPOSITION AND DEVICE” (Novaflux Inc., priority 2021, published 2023)
Counter-ions that a name gives are not always drawn.

Tests used:
[1] = Thermogravimetric analysis of the APIs; assay type: physicochemical; conditions: ramp heated to 140° C. and held for 10 minutes
Description: Thermogravimetric analysis was performed on the APIs used in compositions. Each drug was ramp heated to 140° C. and held at that temperature for 10 minutes. For all compositions, time spent melt-mixing is 8-10 minutes. The decomposition of the API in that time was less than 0.5% for each drug, meaning that the API are stable during processing. For Rifampin, the change in mass was 0.292%; for Minocycline HCl the change in mass was 0.421%; and for minocycline Free Base the change in mass was 0.137%.

[2] = Stability (discoloration) of the two forms of minocycline
[3] = cited from earlier work
E. Coli = conditions: averaged between the high and low of the MIC; cited from earlier work
A. Baumanii = conditions: averaged between the high and low of the MIC; cited from earlier work
S. Epidermidis = conditions: averaged between the high and low of the MIC; cited from earlier work
S. Aureus = conditions: averaged between the high and low of the MIC; cited from earlier work

Row | change in mass (decomposition of the API) [1] [%] | discoloration process ([2]; dry powder form exposed to air) | SMILES | stability (discoloration) over time ([2]; stored in distilled water and formulated in compositions) | solubility in water [3] | MIC (E. Coli) [micrograms per ml] | MIC (A. Baumanii) [micrograms per ml] | MIC (S. Epidermidis) [micrograms per ml] | MIC (S. Aureus) [micrograms per ml]
1 | 0.137 | not observed at all | CN(C)c1ccc(O)c2c1C[C@H]1C[C@H]3[C@H](N(C)C)C(=O)C(C(N)=O)=C(O)[C@@]3(O)C(=O)C1=C2O [minocycline Free Base] | the drug oxidizes with the passage of time |  |  |  |  | 
2 | 0.421 |  | CN(C)c1ccc(O)c2c1C[C@H]1C[C@H]3[C@H](N(C)C)C(O)=C(C(N)=O)C(=O)[C@@]3(O)C(O)=C1C2=O [Minocycline HCl] |  |  |  |  |  | 

Row | SMILES | change in mass (decomposition of the API) [1] [%] | discoloration process ([2]; dry powder form exposed to air) | stability (discoloration) over time ([2]; stored in distilled water and formulated in compositions) | solubility in water [3] | MIC (E. Coli) [micrograms per ml] | MIC (A. Baumanii) [micrograms per ml] | MIC (S. Epidermidis) [micrograms per ml] | MIC (S. Aureus) [micrograms per ml]
3 | CO[C@H]1/C=C/O[C@@]2(C)Oc3c(C)c(O)c4c(O)c(c(/C=N/N5CCN(C)CC5)c(O)c4c3C2=O)NC(=O)/C(C)=C\C=C\[C@H](C)[C@H](O)[C@@H](C)[C@@H](O)[C@@H](C)[C@H](OC(C)=O)[C@@H]1C [Rifampicin] | 0.292 |  |  | low solubility in water | 10 | 6 | 0.1 | 0.0095
